Values of other authors, collected in EP0353388A2, “Floor treatment product” (DYNA-5, INC., priority 1988, dated 1990).

Settings: first dissociation constant of the acid

| SMILES | first pK value (pK^I) |
| --- | --- |
| O=C(O)CN(CCN(CC(=O)O)CC(=O)O)CC(=O)O [ethylenediaminetetraacetic acid] | 2.00 |
| O=C(O)C(=O)O [oxalic acid] | 1.25 |
